Experimental findings from patent EP2198709A1, “Method for treating resistant animal pests” (Bayer CropScience AG, priority 2008, dated 2010) are described below.

Holding throughout (type): in vivo
The subject of one data set is Bemisia tabaci SUD-S. Briefly: Leaf-dip bioassay, adult whiteflies, insecticide-susceptible strain SUD-S. To be noted: adults, mortality after 72 h. The text has this: (§1) Es wurden Versuche durchgeführt, um die überlegene Blattwirkung von Enaminocarbonylverbindungen gegen adulte Tiere eines Stamms von Bemisia tabaci zu zeigen, der bekanntermaßen resistent ist gegen Neonikotinoid-Insektizide sowie andere Insektizidklassen, einschließlich Insekten-Wachstumsregulatoren (wie Buprofezin) und Antifeedants (Substanzen, die einen Schaderreger vom Fraß abhalten) (wie Pymetrozin).
(§2) Baumwollblattscheiben (30 mm im Durchmesser) wurden für 5 sec in wässrige Lösungen technischer Insektizide, enthaltend 0,2 g/l Triton-X-100 als nicht-ionisches Benetzungsmittel, getaucht. Luftgetrocknete Blattscheiben wurden dann mit der adaxialen Seite nach unten auf ein Agarbett (12 g/l) in einer kleinen Petrischale (40 mm im Durchmesser) gelegt. Adulte Weiße Fliegen wurden mittels eines Vakuum-getriebenen Aspirators aus Aufzuchtkäfigen eingesammelt und 20 adulte Tiere wurden nach kurzer CO2-Narkose auf die Blattscheiben gelegt. Anschließend wurde jede Petrischale mit einem belüfteten Deckel verschlossen und umgedreht aufbewahrt. Nach 72 h wurde die Mortalität der Weißen Fliegen bestimmt. Jedes Insektizid wurde mindestens dreifach mit 2-oder 3-fach Bestimmungen pro Konzentration getestet.
(§3) LC50-Werte wurden aus Probit-Regressionen unter Verwendung des Computerprogramms POLO-PC 2 (LeOra Software, Berkeley, USA) berechnet.
(§4) Tabelle 1. Log-Dosis Probit Mortalitätsdaten für verschiedene Klassen von Insektiziden erhalten aus Blatt-Tauch-Bioassays gegen adulte Tiere zweier Bemisia tabaci Stämme, SUD-S und ESP-00, die bekanntermaßen Insektizid-empfindlich (SUD-S) bzw. multiresistent (ESP-00) sind (Stumpf und Nauen, 2003). Mortalität wurde nach 72 h bestimmt, mit Ausnahme von Buprofezin (10-12 d).

For another data set, the system named is Bemisia tabaci ESP-00. Briefly: Leaf-dip bioassay, adult whiteflies, multi-resistant strain ESP-00. Conditions: adults; for ESP-00 LC50: multi-resistant strain ESP-00, mortality after 72 h.
Description: as §1, §2, §3, §4

The test system of a further data set is Nilaparvata lugens. Briefly: Field trial on rice plants, spray, against neonicotinoid-resistant brown planthoppers (Thailand). Conditions: 50 g ai/ha/m CH, both SL 100. The source says:
In Banglane (Thailand) wurden Reispflanzen, die stark mit bekanntermaßen Neonikotinoyl-resistenten Braunrückigen Reiszikaden (Nilaparvata lugens) infiziert waren, jeweils zwei Mal im Abstand von 14 Tagen mit der Verbindung 1-5 (SL 100, 50 g ai/ha/m CH (g aktive Substanz/ha/m CH, CH = Laubwand-Höhe) bzw. mit Imidacloprid (SL 100, 50 g ai/ha/m CH) besprüht. Zu verschiedenen Zeitpunkten nach der ersten bzw. zweiten Behandlung (DAA = Tage nach 1. Behandlung, DAB = Tage nach zweiter Behandlung) wurde die Wirksamkeit (in % Abbott: Verhältnis der Anzahl Tier auf behandelter Pflanze / Fläche zur Anzahl Tiere auf Kontrolle) der beiden Substanzen gegen Nilaparvata lugens bestimmt.

On to `O=[N+]([O-])NC1=NCCN1Cc1ccc(Cl)nc1` [Imidacloprid], for which the “SUD-S LC50” value in the data set on Bemisia tabaci SUD-S was determined as 0.82 ppm. Further, the “ESP-00 LC50” value in the data set with Bemisia tabaci ESP-00 was found to be 300 ppm. Also, the Effizienz is listed as 19,6 % Abbott with Nilaparvata lugens (1 DAA, sprayed); 24,9 % Abbott with Nilaparvata lugens (3 DAA, sprayed); 36,5 % Abbott in the data set on Nilaparvata lugens (5 DAA, sprayed); 26,6 % Abbott in the data set on Nilaparvata lugens (7 DAA, sprayed); 19,8 % Abbott in the data set with Nilaparvata lugens (7 DAB, sprayed 2x); 17,8 % Abbott in the data set on Nilaparvata lugens (14 DAA, sprayed). The Effizienz in the data set on Nilaparvata lugens (14 DAB, sprayed 2x) is on record as 26,4 % Abbott.
In the case of `O=C1C=C(N(Cc2ccc(Cl)nc2)CC(F)F)CO1` [Verbindung I-5, 4-{[(6-Chlorpyrid-3-yl)methyl](2,2-difluorethyl)amino}furan-2(5H)-on], the “SUD-S LC50” value in the data set on Bemisia tabaci SUD-S was 6.7 ppm. The “Resistenz / Kreuz-resistenz von adulten B. tabaci Tieren des Stamms ESP-00 im Vergleich zu SUD-S” value in the data set with Bemisia tabaci ESP-00 (leaf-dip, result in words) was “nur geringfügige Kreuz-resistenz”. Also, the “ESP-00 LC50” value in the data set with Bemisia tabaci ESP-00 was 36 ppm. Also, the Effizienz is given as 19 % Abbott in the data set on Nilaparvata lugens (1 DAA, sprayed); 39 % Abbott with Nilaparvata lugens (3 DAA, sprayed); 66,8 % Abbott with Nilaparvata lugens (5 DAA, sprayed); 70,3 % Abbott in the data set with Nilaparvata lugens (7 DAA, sprayed); 69,5 % Abbott with Nilaparvata lugens (7 DAB, sprayed 2x); 65,7 % Abbott in the data set with Nilaparvata lugens (14 DAA, sprayed). Besides, the Effizienz in the data set on Nilaparvata lugens (14 DAB, sprayed 2x) was 55,9 % Abbott.
